The results in this text go back to patent publication US20230159527A1, “COMPOUNDS AS BCL-2 INHIBITORS” (Fochon Pharmaceuticals, Ltd., priority 2020, published 2023).

The subject of one experiment is Toledo cells. As to the kind of experiment: Cell proliferation assay, Toledo cells (MTS, 72 h). It counts as cell-based. The following applies: Homo sapiens, Toledo cells, MTS, read-out: Toledo IC50. A digest of the protocol: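 Toledo cells (30000/well, RPMI-1640 with 10% FBS) were preincubated for 4 h. They were then exposed to nine compound concentrations from 10000 to 1.5 nM for 72 h at 37 °C, 5% CO2. MTS was added for 2 h and absorbance read at 490 nm to give IC50.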

A further experiment relates to DoHH2 cells. The experiment is described as follows: Cell proliferation assay, DoHH2 cells (MTS, 120 h). The following applies: Homo sapiens, DOHH-2. It is filed as cell-based. The method, then:
MTS testing kit was purchased from Promega (Madison, Wis., USA). The RPMI-1640, Fetal bovine serum and Penicillin-Streptomycin were purchased from BI (Biological Industries, Beit Haemek, Israel). Dimethyl sulfoxide (DMSO) was purchased from Sigma (St. Louis, Mo., USA). DoHH2 (DSMZ catalog #: ACC47) cells were cultured in RPMI-1640 supplemented with Penicillin-Streptomycin and 10% FBS.
To investigate whether a compound is able to inhibit the activity of BCL-2 in cells, a mechanism-based assay using DoHH2 lines was developed. In this assay, the inhibition of BCL-2 was reflected by the inhibition of cell proliferation of DoHH2 cells. Cells were plated into 96-well plates at the optimized cell density of 5000 cells/well. Plates were incubated at 37° C., with 5% CO2 for 4h. Compounds were serially diluted and added to the plates with the final concentrations of 10000, 3333.3, 1111.1, 370.4, 123.5, 41.2, 13.7, 4.6 and 1.5 nM. Plates were incubated at 37° C., with 5% CO2 for 120 h. 20 μl MTS was added into each well and the plates were incubated at 37° C., with 5% CO2 for exactly 2 h. The absorbance was measured by a microplate reader at 490 nm. IC50 was calculated using GraphPad Prism 5.0 software.

Consider `CC(C)c1ccccc1[C@@H]1CCC[C@@H]1N1CC2(CCN(c3ccc(C(=O)NS(=O)(=O)c4cnc(NC[C@H]5CC[C@](C)(O)CC5)c([N+](=O)[O-])c4)c(Oc4cnc5[nH]ccc5c4)c3)CC2)C1` (single isomer, unassigned) [Example A-136, 2-((1H-pyrrolo[2,3-b]pyridin-5-yl)oxy)-N-((6-((((1r,4r)-4-hydroxy-4-methylcyclohexyl)methyl)amino)-5-nitropyridin-3-yl)sulfonyl)-4-(2-((1R,2R or 1S, 2S)-2-(2-isopropylphenyl)cyclo-pentyl)-2,7-diazaspiro[3.5]nonan-7-yl)benzamide], for which the IC50 (usually the point on the concentration scale where inhibition reaches its midpoint) was 1 nM in the experiment with Toledo cells and at most 1 nM with DoHH2 cells.
`O=C(NS(=O)(=O)c1cc2c(c([N+](=O)[O-])c1)O[C@H](CN1CCOCC1)CO2)c1ccc(N2CCC3(CC2)CC(N2CCOC[C@H]2c2ccccc2C2CC2)C3)cc1Oc1cnc2[nH]ccc2c1` (single isomer, unassigned) [Example E-41, 2-((1H-pyrrolo [2,3-b]pyridin-5-yl)oxy)-4-(2-((R or S)-3-(2-cyclopropylphenyl)morpholino)-7-azaspiro[3.5]nonan-7-yl)-N-(((R)-2-(morpholinomethyl)-8-nitro-2,3-dihydrobenzo [b][1,4]dioxin-6-yl)sulfonyl) benzamide]: the results for the IC50 in the experiment with Toledo cells and in the experiment with DoHH2 cells were 1 nM and at most 1 nM, respectively.
For `CC(C)c1ccccc1[C@@H]1COCCN1C1CC2(CCN(c3ccc(C(=O)NS(=O)(=O)c4cnc(NC[C@H]5CC[C@](C)(O)CC5)c([N+](=O)[O-])c4)c(Oc4cnc5[nH]cc(Cl)c5c4)c3)CC2)C1` (single isomer, unassigned) [Example A-129, 2-((3-chloro-1H-pyrrolo[2,3-b]pyridin-5-yl)oxy)-N-((6-((((1r,4r)-4-hydroxy-4-methylcyclohexyl)methyl)amino)-5-nitropyridin-3-yl)sulfonyl)-4-(2-((R or S)-3-(2-isopropylphenyl)morpholino)-7-azaspiro[3.5]nonan-7-yl) benzamide], the IC50 in the experiment on Toledo cells is 1 nM; in the experiment with DoHH2 cells, at most 1 nM.
Regarding `CC(C)c1ccccc1C1COCCN1C1CC2(CCN(c3ccc(C(=O)NS(=O)(=O)c4cc5c(c([N+](=O)[O-])c4)O[C@@H](CN4CCOCC4)CO5)c(Oc4cnc5[nH]ccc5c4)c3)CC2)C1` (single isomer, unassigned) [Example E-36, 2-((1H-pyrrolo [2,3-b]pyridin-5-yl)oxy)-4-(2-((R or S)-3-(2-isopropylphenyl)morpholino)-7-azaspiro[3.5]nonan-7-yl)-N-(((S)-2-(morpholinomethyl)-8-nitro-2,3-dihydrobenzo [b][1,4]dioxin-6-yl)sulfonyl)benzamide], in the experiment with DoHH2 cells, the IC50 is at most 1 nM.
`CC(C)c1ccccc1C1COCCN1C1CC2(CCN(c3ccc(C(=O)NS(=O)(=O)c4cc([N+](=O)[O-])c5c(n4)OC[C@H](CC4CCOCC4)N5)c(Oc4cnc5[nH]ccc5c4)c3)CC2)C1` (single isomer, unassigned) [Example B-51, 2-((1H-pyrrolo[2,3-b]pyridin-5-yl)oxy)-4-(2-((R or S)-3-(2-isopropylphenyl)morpholino)-7-azaspiro[3.5]nonan-7-yl)-N-(((S)-8-nitro-2-((tetrahydro-2H-pyran-4-yl)methyl)-2,3-dihydro-1H-pyrido[2,3-b][1,4]oxazin-6-yl)sulfonyl)benzamide]: in the experiment with DoHH2 cells, the IC50 was at most 1 nM.
For the compound `O=C(NS(=O)(=O)c1cc2c(c([N+](=O)[O-])c1)O[C@@H](CN1CCOCC1)CO2)c1ccc(N2CCC3(CC2)CC(N2CCC[C@H]2c2ccccc2C2CC2)C3)cc1Oc1cnc2[nH]ccc2c1` (single isomer, unassigned) [Example E-34, 2-((1H-pyrrolo [2,3-b]pyridin-5-yl)oxy)-4-(2-((R or S)-2-(2-cyclopropylphenyl)pyrrolidin-1-yl)-7-azaspiro[3.5]nonan-7-yl)-N-(((5)-2-(morpholinomethyl)-8-nitro-2,3-dihydrobenzo [b][1,4]dioxin-6-yl)sulfonyl) benzamide], the IC50 with DoHH2 cells is at most 1 nM.
`O=C(NS(=O)(=O)c1cc2c(c([N+](=O)[O-])c1)O[C@@H](CN1CCOCC1)CO2)c1ccc(N2CCC3(CC2)CC(N2CCOC[C@H]2c2ccccc2C2CC2)C3)cc1Oc1cnc2[nH]ccc2c1` (single isomer, unassigned) [Example E-37, 2-((1H-pyrrolo [2,3-b]pyridin-5-yl)oxy)-4-(2-((R or S)-3-(2-cyclopropylphenyl)morpholino)-7-azaspiro[3.5]nonan-7-yl)-N-(((S)-2-(morpholinomethyl)-8-nitro-2,3-dihydrobenzo [b][1,4]dioxin-6-yl)sulfonyl) benzamide] gave an IC50 with DoHH2 cells of at most 1 nM.
For the compound `CC(C)c1ccccc1[C@@H]1COCCN1C1CC2(CCN(c3ccc(C(=O)NS(=O)(=O)c4cc([N+](=O)[O-])c5c(n4)OC[C@H]([C@H]4CC[C@@](C)(O)CC4)N5)c(Oc4cnc5[nH]ccc5c4)c3)CC2)C1` (single isomer, unassigned) [Example B-48, 2-((1H-pyrrolo[2,3-b]pyridin-5-yl)oxy)-N-(((S)-2-((1s,4R)-4-hydroxy-4-methylcyclohexyl)-8-nitro-2,3-dihydro-1H-pyrido[2,3-b] [1,4]oxazin-6-yl)sulfonyl)-4-(2-((R or S)-3-(2-isopropylphenyl)morpholino)-7-azaspiro[3.5]nonan-7-yl) benzamide], the IC50 with DoHH2 cells is at most 1 nM.
`CC1(O)CCC(CNc2ncc(S(=O)(=O)NC(=O)c3ccc(N4CCC5(CC4)CC(N4CCC[C@H]4c4ccccc4C4CC4)C5)cc3Oc3cnc4[nH]ccc4c3)cc2[N+](=O)[O-])CC1` (stereo partly drawn) [Example A-1b, (S)-2-((1H-pyrrolo[2,3-b]pyridin-5-yl)oxy)-4-(2-(2-(2-cyclopropylphenyl)pyrrolidin-1-yl)-7-azaspiro[3.5]nonan-7-yl)-N-((6-(((4-hydroxy-4-methylcyclohexyl)methyl)amino)-5-nitropyridin-3-yl)sulfonyl)benzamide] registered an IC50 in the experiment on DoHH2 cells of at most 1 nM.
In the experiment with DoHH2 cells, `O=C(NS(=O)(=O)c1cc([N+](=O)[O-])c2c(n1)OC[C@H](COC1CCOCC1)N2)c1ccc(N2CCC3(CC2)CC(N2CCCC2c2ccccc2C2CC2)C3)cc1Oc1cnc2[nH]ccc2c1` (single isomer, unassigned) [Example B-46, 2-((1H-pyrrolo[2,3-b]pyridin-5-yl)oxy)-4-(2-((R or S)-2-(2-cyclopropylphenyl)pyrrolidin-1-yl)-7-azaspiro[3.5]nonan-7-yl)-N-(((S)-8-nitro-2-(((tetrahydro-2H-pyran-4-yl)oxy)methyl)-2,3-dihydro-1H-pyrido[2,3-b] [1,4]oxazin-6-yl)sulfonyl)benzamide] gave an IC50 of at most 1 nM.
Same read-out and setting: the result for `CC(C)c1ccccc1[C@@H]1CCCN1C1CC2(CCN(c3ccc(C(=O)NS(=O)(=O)c4cnc(NCC5CCC(C)(O)CC5)c([N+](=O)[O-])c4)c(Oc4cnc5[nH]ccc5c4)c3)CC2)C1` (stereo partly drawn) [Example A-6b, (S)-2-((1H-pyrrolo[2,3-b]pyridin-5-yl)oxy)-N-((6-(((4-hydroxy-4-methylcyclohexyl)methyl)amino)-5-nitropyridin-3-yl)sulfonyl)-4-(2-(2-(2-isopropylphenyl)pyrrolidin-1-yl)-7-azaspiro[3.5]nonan-7-yl) benzamide] reads at most 1 nM.
